Measurements reported in patent US8604225B2, “Method of producing hydroxymethyl-furfural” (Novozymes, A/S, priority 2010, dated 2013).

How the values were obtained:
[1] = molecular target: T1, immobilized glucose isomerase (Sweetzyme™) (Streptomyces murinus, UniProt P37031); test: Glucose isomerase performance with substrate containing HMF; assay type: biochemical, S. murinus; design: purchased Novozymes A/S; conditions: for Activity: Syrup with 0.1 w/w % HMF
Procedure: To the substrate was added hydroxymethylfurfural (HMF) to a final concentration of 0.1 w/w % HMF.

[2] = molecular target: T1, immobilized glucose isomerase (Sweetzyme™); test: Effect of HMF on the initial activity of Sweetzyme™ (batch bottles); assay type: biochemical, S. murinus; design: purchased Novozymes A/S; conditions: for initial activity: 60° C.
Procedure: 2.5 gram immobilized glucose isomerase (Sweetzyme™) was loaded to a 250 mL square shaped bottles with screw cap. The bottles were placed in an orbital shaker and heated to 60° C.
The following conditions were applied for 4 bottles. The term conversion is defined as the fructose/glucose ratio.
Conversion vs. time is presented in FIG. 10 and the initial activity is calculated to be 389.
Conversion vs. time is presented in FIG. 11 and the initial activity is calculated to be 378.
Conversion vs. time is presented in FIG. 12 and the initial activity is calculated to be 364.

T1 sequence (P37031 whole entry): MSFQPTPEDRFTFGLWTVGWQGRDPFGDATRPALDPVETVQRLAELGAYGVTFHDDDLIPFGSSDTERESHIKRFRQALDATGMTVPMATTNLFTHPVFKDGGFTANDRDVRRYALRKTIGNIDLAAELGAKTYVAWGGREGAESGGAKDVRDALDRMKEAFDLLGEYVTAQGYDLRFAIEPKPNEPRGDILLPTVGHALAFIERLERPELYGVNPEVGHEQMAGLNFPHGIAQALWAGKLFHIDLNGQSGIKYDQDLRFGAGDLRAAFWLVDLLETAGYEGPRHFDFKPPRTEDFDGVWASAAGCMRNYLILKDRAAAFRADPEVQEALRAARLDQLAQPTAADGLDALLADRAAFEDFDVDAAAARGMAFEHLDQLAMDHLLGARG

O=Cc1ccc(CO)o1 [HMF, 5-(hydroxymethyl)-2-furaldehyde]
Activity ([1]; time 94.25 h): 360.39 IGIU/g
Activity ([1]; time 116.25 h): 267.97 IGIU/g
Activity ([1]; time 139.50 h): 368.20 IGIU/g
Activity ([1]; time 162.75 h): 359.92 IGIU/g
Activity ([1]; time 237.25 h): 367.23 IGIU/g
Activity ([1]; time 259.17 h): 353.51 IGIU/g
Activity ([1]; time 283.67 h): 363.92 IGIU/g
Activity ([1]; time 311.08 h): 358.90 IGIU/g
decay rate compared to a column with normal syrup ([1]; after 9 days with substrate containing 0.1 w/w % HMF): not affected
initial activity ([2]; Bottle 2: 0.01 w/w % HMF in 45% glucose syrup): 389
initial activity ([2]; Bottle 3: 0.1 w/w % HMF in 45% glucose syrup): 378
initial activity ([2]; Bottle 4: 1 w/w % HMF in 45% glucose syrup): 364
Sweetzyme™ activity as a function of HMF concentration ([2]; FIG. 13, 0.01-1 w/w % HMF): not seriously affected
